Experimental data reported in patent US7115639B2, “Pyrrolidine oxadiazole- and thiadiazole oxime derivatives being oxytocin receptor antagonists” (Applied Research Systems ARS Holding N.V., priority 2001, dated 2006).

Key:
[1] = system: oxytocin-induced uterine contractions in the rat; assay: In vivo model for inhibition of uterine contractions; conditions: subcutaneous, NP3S, 5 ml/kg, 10 mg/kg
[2] = system: oxytocin-induced uterine contractions in the rat; assay: as above; conditions: subcutaneous, NP3S, 5 ml/kg
Experimental: d) In Vivo Model for Inhibition of Uterine Contractions
The assay intends to show the biological effect of tested compounds in an in vivo model of preterm labor, premature birth.
Non-pregnant Charles River CD(SD) BR female rats (9–10 weeks old, 200–250 g) were treated at 18 and 24 hours before the experiment with 250 μg/kg, i.p. diethylstilbestrol (DES). For the assay, the animal was anaesthetised by urethane (1.75 g/kg, i.p.) and placed on an homeothermic operating table. The trachea was isolated and cannulated with a suitable polyethylene (PE) tubing. A midline incision at the hypogastrium level was made and one uterine horn exposed, its cephalic end cannulated with a PE240 tubing and, after filling the internal cavity with 0.2 ml of sterile physiological saline, connected to a “Gemini” amplifying/recording system via a P231D Gould Statham pressure transducer, in, order to measure said pressure. For the i.v. route of administration of the test compounds, one jugular vein was isolated and cannulated with a PE60 tubing connected to a butterfly needle to allow the administration by a dispensing syringe. In the case of intraduodenal administration of the test compounds, the duodenum was isolated and similarly cannulated through a small incision in its wall. One carotid artery was also isolated and cannulated with PE60 catheter and connected to a suitable syringe for blood sample collection (see below). After a stabilization period, the same dose of oxytocin was repeatedly injected intravenously at 30-min intervals. […] Further injections of the same dose of oxytocin were then made for a suitable time after treatment to assess inhibitory effects of the compounds under study. The contractile response of the uterus to oxytocin was quantified by measuring the intrauterine pressure and the number of contractions.
A total of six animals is forming one group which is treated with a given test compound at a given concentration (see above).
The effect of the test compounds were evaluated by comparing pre- and post-treatment pressure values. In addition, at 2, 30, 90 and 210 minutes after test compound administration, a 0.5-ml blood sample was withdrawn from the cannulated carotid artery of each experimental animal. Plasma was obtained by standard laboratory procedure and the resulting samples were stored at −20° C.
The activities of the pyrrolidine derivatives claimed in the formula I were assessed using the above described in vivo biological assay. The values refer to the capacity of the example compound according to formula I to effectively antagonize oxytocin-induced uterine contractions in the rat.

In the case of `CO/N=C1/C[C@@H](c2nc(CCO)no2)N(C(=O)c2ccc(-c3ccccc3)cc2)C1` [(3Z,5S)-1-([1,1′-biphenyl]-4-ylcarbonyl)-5-[3-(2-hydroxyethyl)-1,2,4-oxadiazol-5-yl]-3-pyrrolidinone O-methyloxime], the “% Reduction of Uterine Contraction” value [1] is reported as −39.7 ± 7.2%, the “% Reduction of Uterine Contraction” value ([2]; 1 mg/kg) is reported as −13.2 ± 5.6% and the “% Reduction of Uterine Contraction” value ([2]; 3 mg/kg) is reported as −30.2 ± 1.1%. For the same compound, the “% Reduction of Uterine Contraction” value ([2]; 30 mg/kg) was −57.5 ± 8.6% and the melting point was 141 °C.
